Drawing on patent publication US20240116985A1, “STAPLED PEPTIDES AND METHODS THEREOF” (priority 2020, published 2024), this text covers IC50 for 14 compounds.

Non-standard residues stand in square brackets, D forms with d. Residues, ends and D or L forms follow the SMILES beside them. Bta = N[C@@H](Cc1csc2ccccc12)C(=O)O; tBuAla = CC(C)(C)C[C@H](N)C(=O)O; 3Thi = N[C@@H](Cc1ccsc1)C(=O)O; αMeP = C[C@@]1(C(=O)O)CCCN1; Aib = CC(C)(N)C(=O)O

The target in the first test is T1, full-length beta-Catenin (Uniprot ID P35222) (Homo sapiens, UniProt P35222).
T1 construct: 10 nM full-length beta-Catenin (Uniprot ID P35222)
T1 sequence (P35222 1-781): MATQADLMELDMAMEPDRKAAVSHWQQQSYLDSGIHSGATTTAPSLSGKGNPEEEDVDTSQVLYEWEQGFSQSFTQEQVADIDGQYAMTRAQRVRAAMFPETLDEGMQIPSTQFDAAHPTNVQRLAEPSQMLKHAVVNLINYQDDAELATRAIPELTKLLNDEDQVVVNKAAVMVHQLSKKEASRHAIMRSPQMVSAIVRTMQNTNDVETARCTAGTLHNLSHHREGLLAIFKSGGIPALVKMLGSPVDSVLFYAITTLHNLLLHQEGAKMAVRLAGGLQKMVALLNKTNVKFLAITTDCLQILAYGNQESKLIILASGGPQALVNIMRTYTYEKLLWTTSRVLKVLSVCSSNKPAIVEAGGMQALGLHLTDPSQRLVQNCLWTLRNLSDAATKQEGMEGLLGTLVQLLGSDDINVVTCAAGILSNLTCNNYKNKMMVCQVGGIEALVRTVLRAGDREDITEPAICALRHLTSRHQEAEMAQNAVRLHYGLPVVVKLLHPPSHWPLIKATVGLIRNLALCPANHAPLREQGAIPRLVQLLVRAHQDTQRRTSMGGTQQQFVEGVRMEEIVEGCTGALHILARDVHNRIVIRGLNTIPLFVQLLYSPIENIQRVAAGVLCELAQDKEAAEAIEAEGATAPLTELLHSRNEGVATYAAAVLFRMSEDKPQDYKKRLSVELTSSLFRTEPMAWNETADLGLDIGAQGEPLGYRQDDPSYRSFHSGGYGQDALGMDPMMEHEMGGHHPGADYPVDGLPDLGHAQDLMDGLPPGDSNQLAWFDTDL
The test can be described thus: Fluorescence polarization IC50 (beta-catenin / 5FAM-TCF4 10-53 competition). It counts as binding. The settings on record: beta-Catenin FP IC50 (nM), fluorescence polarization. (In general: In fluorescence polarisation assays a small probe gives low polarisation when free and higher when bound to something large.)
The term IC50 denotes the concentration at which inhibition is half-maximal. In the case of `CC(C)C[C@@H]1NC(=O)[C@H](Cc2ccccc2)NC(=O)[C@H](C)NC(=O)[C@H](C)NC(=O)[C@H](Cc2cccc(C(=O)O)c2)NC(=O)[C@H](CC(=O)O)NC(=O)C2(CCCC=CCCCOC(=O)N3CC[C@@](C(=O)N[C@@H](Cc4ccccc4Cl)C(=O)N[C@@H](Cc4csc5ccccc45)C(=O)N[C@@H](C)C(N)=O)(C3)NC1=O)CCCC=CC[C@]1(CCCN1C(=O)CCl)C(=O)N[C@@H](CC(=O)O)C(=O)N[C@@H](CC(C)(C)C)C(=O)N2` (stereo partly drawn) [I-2253, ClAc-PL3-Asp-Npg-B5-Asp-3COOHF-Ala-Ala-Phe-Leu-PyrS2-2C1F-BztA-Ala-NH2], the IC50 worked out at 189 nM.

The same test, now with this note: fluorescence polarization; read-out: beta-Catenin FP IC50.
Regarding `CC(=O)N1CCC[C@]12CC=CCCCC1(CCCC=CCCCOC(=O)N3CC[C@@](C(=O)N[C@@H](Cc4ccsc4)C(=O)N[C@@H](Cc4csc5ccccc45)C(=O)N[C@@H](C)C(N)=O)(C3)NC(=O)[C@H](CC(C)C)NC(=O)[C@H](Cc3ccccc3)NC(=O)[C@H](C)NC(=O)C(C)(C)NC(=O)[C@H](Cc3cc(C(=O)O)cc(C(F)(F)F)c3)NC(=O)[C@H](CC(=O)O)NC1=O)NC(=O)[C@H](CC(C)(C)C)NC(=O)[C@H](CC(=O)O)NC2=O` (stereo partly drawn) [I-2212, Ac-PL3-Asp-Npg-B5-Asp-5F3Me3COOHF-Aib-Ala-Phe-Leu-PyrS2-3Thi-BztA-Ala-NH2], the IC50 was determined as 60 nM.
Same read-out and setting: for `CC(=O)N1CCC[C@]12CC=CCCCC1(CCCC=CCOC(=O)N(C)CC[C@@](C)(C(=O)N[C@@H](Cc3ccsc3)C(=O)N[C@@H](Cc3csc4ccccc34)C(=O)N[C@@H](CCC(N)=O)C(N)=O)NC(=O)[C@H](CC(N)=O)NC(=O)[C@H](Cc3ccccc3)NC(=O)[C@H](C)NC(=O)[C@H](C)NC(=O)[C@H]([C@@H](C)O)NC(=O)[C@H](CC(N)=O)NC1=O)NC(=O)[C@H](CC(C)(C)C)NC(=O)[C@H](CC(=O)O)NC2=O` (stereo partly drawn) [I-2213, Ac-PL3-Asp-Npg-B5-Asn-Thr-Ala-Ala-Phe-Asn-SdN-3Thi-BztA-Gln-NH2] the value was 5250 nM; for `CC(=O)N1CCC[C@]12CC=CCCCC1(CCCC=CCCCOC(=O)N3CC[C@@](C(=O)N[C@@H](Cc4cccc(-c5ccccc5)c4)C(=O)N[C@@H](Cc4ccccc4)C(=O)N[C@@H](CCC(N)=O)C(N)=O)(C3)NC(=O)[C@H](CC(C)C)NC(=O)[C@H](Cc3ccccc3)NC(=O)[C@H](C)NC(=O)[C@H](C)NC(=O)[C@H](Cc3cccc(C(=O)O)c3)NC(=O)[C@H](CC(=O)O)NC1=O)NC(=O)[C@H](CC(C)(C)C)NC(=O)[C@H](CC(=O)O)NC2=O` (stereo partly drawn) [I-2214, Ac-PL3-Asp-Npg-B5-Asp-3COOHF-Ala-Ala-Phe-Leu-PyrS2-[Ph]-3SF-Phe-Gln-NH2], 1860 nM; for `CC(=O)N1CCC[C@]12CC=CCCCC1(CCCC=CCCCOC(=O)N3CC[C@@](C(=O)N[C@@H](Cc4cccc(C5CC5)c4)C(=O)N[C@@H](Cc4ccccc4)C(=O)N[C@@H](CCC(N)=O)C(N)=O)(C3)NC(=O)[C@H](CC(C)C)NC(=O)[C@H](Cc3ccccc3)NC(=O)[C@H](C)NC(=O)[C@H](C)NC(=O)[C@H](Cc3cccc(C(=O)O)c3)NC(=O)[C@H](CC(=O)O)NC1=O)NC(=O)[C@H](CC(C)(C)C)NC(=O)[C@H](CC(=O)O)NC2=O` (stereo partly drawn) [I-2215, Ac-PL3-Asp-Npg-B5-Asp-3COOHF-Ala-Ala-Phe-Leu-PyrS2-[CyPr]-3SF-Phe-Gln-NH2], 1540 nM.
Still for that read-out and setting: for `CC(=O)N1CCC[C@@]1(C)C(=O)N[C@@H](CC(=O)O)C(=O)N[C@@H](CC(C)(C)C)C(=O)NC(C)(C)C(=O)N[C@@H](CC(=O)O)C(=O)N[C@@H](CC(=O)O)C(=O)N[C@@H](C)C(=O)N[C@@H](C)C(=O)N[C@@H](Cc1ccccc1)C(=O)N[C@@H](CCC(N)=O)C(=O)NC(C)(C)C(=O)N[C@@H](Cc1ccsc1)C(=O)N[C@@H](Cc1csc2ccccc12)C(=O)N[C@@H](Cc1c[nH]cn1)C(N)=O` [I-2228, Ac-MePro-Asp-Npg-Aib-Asp-Asp-Ala-Ala-Phe-Gln-Aib-3thi-BztA-His-NH2] (Ac-[αMeP]D[tBuAla][Aib]DDAAFQ[Aib][3Thi][Bta]H-NH2) the value was 2140 nM; for `CC(=O)N1CCC[C@]12CC=CCCCC1(CCCC=CCCCOC(=O)N3CC[C@@](C(=O)N[C@@H](Cc4ccsc4)C(=O)N[C@@H](Cc4csc5ccccc45)C(=O)N[C@@H](Cc4c[nH]cn4)C(=O)N[C@@H](CCCCN)C(N)=O)(C3)NC(=O)[C@H](CCC(N)=O)NC(=O)[C@H](Cc3ccccc3)NC(=O)[C@H](C)NC(=O)[C@H](C)NC(=O)[C@H](CC(=O)O)NC(=O)[C@H](CC(=O)O)NC1=O)NC(=O)[C@H](CC(C)(C)C)NC(=O)[C@H](CC(=O)O)NC2=O` (stereo partly drawn) [I-2229, Ac-PL3-Asp-Npg-B5-Asp-Asp-Ala-Ala-Phe-Gln-PyrS2-3thi-BztA-His-Lys-NH2], 6 nM.
On to `CC(=O)N1CCC[C@]12CC=CCCCC1(CCCC=CCCCOC(=O)N3CC[C@@](C(=O)N[C@@H](Cc4ccsc4)C(=O)N[C@@H](Cc4csc5ccccc45)C(=O)N[C@@H](Cc4c[nH]cn4)C(=O)N[C@@H](CCCCN)C(N)=O)(C3)NC(=O)[C@H](CCC(N)=O)NC(=O)[C@H](Cc3ccccc3)NC(=O)[C@H](C)NC(=O)[C@H](C)NC(=O)[C@H](CC(=O)O)NC(=O)[C@H](CC(=O)O)NC1=O)NC(=O)[C@H](CC(C)(C)C)NC(=O)[C@H](CC(=O)O)NC2=O` (stereo partly drawn) [I-2230, Ac-PL3-Asp-Npg-B5-Asp-Asp-Ala-Ala-Phe-Gln-PyrS2-3thi-BztA-His-Lys-NH2], for which the IC50 turned out to be 8 nM.
Consider `CC(=O)N1CCC[C@@]1(C)C(=O)N[C@@H](CC(=O)O)C(=O)N[C@@H](CC(C)(C)C)C(=O)NC(C)(C)C(=O)N[C@@H](CC(=O)O)C(=O)N[C@@H](CC(=O)O)C(=O)N[C@@H](C)C(=O)N[C@@H](C)C(=O)N[C@@H](Cc1ccccc1)C(=O)N[C@@H](CCC(N)=O)C(=O)NC(C)(C)C(=O)N[C@@H](Cc1ccsc1)C(=O)N[C@@H](Cc1csc2ccccc12)C(=O)N[C@@H](Cc1c[nH]cn1)C(=O)N[C@@H](CCCCN)C(N)=O` [I-2231, Ac-MePro-Asp-Npg-Aib-Asp-Asp-Ala-Ala-Phe-Gln-Aib-3thi-BztA-His-Lys-NH2] (Ac-[αMeP]D[tBuAla][Aib]DDAAFQ[Aib][3Thi][Bta]HK-NH2), for which the IC50 was 5190 nM.
On to `CC(=O)N1CCC[C@]12CC=CCCCC1(CCCC=CCCCOC(=O)N3CC[C@@](C(=O)N[C@@H](Cc4ccsc4)C(=O)N[C@@H](Cc4csc5ccccc45)C(=O)N[C@@H](CCC(N)=O)C(N)=O)(C3)NC(=O)[C@H](CC(C)C)NC(=O)[C@H](Cc3ccccc3)NC(=O)[C@H](C)NC(=O)[C@H](C)NC(=O)[C@H](CN(CC(=O)O)C(=O)c3ccc(CN4CCOCC4)cc3)NC(=O)[C@H](CC(=O)O)NC1=O)NC(=O)[C@H](CC(C)(C)C)NC(=O)[C@H](CC(=O)O)NC2=O` (stereo partly drawn) [I-2238, Ac-PL3-Asp-Npg-B5-Asp-[MeMorphBz]GA-Ala-Ala-Phe-Leu-PyrS2-3Thi-BztA-Gln-NH2], for which the IC50 turned out to be 11 nM.
Same read-out and setting: the same measure for `CC(=O)N1CCC[C@]12CC=CCCCC1(CCCC=CCCCOC(=O)N3CC[C@@](C(=O)N[C@@H](Cc4ccsc4)C(=O)N[C@@H](Cc4csc5ccccc45)C(=O)N[C@@H](CCC(N)=O)C(N)=O)(C3)NC(=O)[C@H](CC(C)C)NC(=O)[C@H](Cc3ccccc3)NC(=O)[C@H](C)NC(=O)[C@H](C)NC(=O)[C@H](CCN(CC(=O)O)C(=O)CCN(C)C)NC(=O)[C@H](CC(=O)O)NC1=O)NC(=O)[C@H](CC(C)(C)C)NC(=O)[C@H](CC(=O)O)NC2=O` (stereo partly drawn) [I-2244, Ac-PL3-Asp-Npg-B5-Asp-[Me2NPr]GAbu-Ala-Ala-Phe-Leu-PyrS2-3Thi-BztA-Gln-NH2]: 16 nM; for `CC(=O)N1CCC[C@]12CC=CCCCC1(CCCC=CCCCOC(=O)N3CC[C@@](C(=O)N[C@@H](Cc4ccsc4)C(=O)N[C@@H](Cc4csc5ccccc45)C(=O)N[C@@H](CCC(N)=O)C(N)=O)(C3)NC(=O)[C@H](CC(C)C)NC(=O)[C@H](Cc3ccccc3)NC(=O)[C@H](C)NC(=O)[C@H](C)NC(=O)[C@H](CCN(CC(=O)O)C(=O)CN3CCOCC3)NC(=O)[C@H](CC(=O)O)NC1=O)NC(=O)[C@H](CC(C)(C)C)NC(=O)[C@H](CC(=O)O)NC2=O` (stereo partly drawn) [I-2249, Ac-PL3-Asp-Npg-B5-Asp-[MorphAc]GAbu-Ala-Ala-Phe-Leu-PyrS2-3Thi-BztA-Gln-NH2]: 14 nM.
Same read-out and setting: the same measure for `CC(=O)N1CCC[C@]12CC=CCCCC1(CCCC=CCCCOC(=O)N3CC[C@@](C(=O)N[C@@H](Cc4ccsc4)C(=O)N[C@@H](Cc4csc5ccccc45)C(=O)N[C@@H](CCC(N)=O)C(N)=O)(C3)NC(=O)[C@H](CC(C)C)NC(=O)[C@H](Cc3ccccc3)NC(=O)[C@H](C)NC(=O)[C@H](C)NC(=O)[C@H](CCN(CC(=O)O)C(=O)CN3CCN(C)CC3)NC(=O)[C@H](CC(=O)O)NC1=O)NC(=O)[C@H](CC(C)(C)C)NC(=O)[C@H](CC(=O)O)NC2=O` (stereo partly drawn) [I-2250, Ac-PL3-Asp-Npg-B5-Asp-[MePipAc]GAbu-Ala-Ala-Phe-Leu-PyrS2-3Thi-BztA-Gln-NH2]: 12 nM; for `CC(=O)N1CCC[C@]12CC=CCCCC1(CCCC=CCCCOC(=O)N3CC[C@@](C(=O)N[C@@H](Cc4cccc(-c5ccccc5)c4)C(=O)N[C@@H](Cc4ccsc4)C(=O)N[C@@H](CCC(N)=O)C(N)=O)(C3)NC(=O)[C@H](CC(C)C)NC(=O)[C@H](Cc3ccccc3)NC(=O)[C@H](C)NC(=O)[C@H](C)NC(=O)[C@H](Cc3cccc(C(=O)O)c3)NC(=O)[C@H](CC(=O)O)NC1=O)NC(=O)[C@H](CC(C)(C)C)NC(=O)[C@H](CC(=O)O)NC2=O` (stereo partly drawn) [I-2254, Ac-PL3-Asp-Npg-B5-Asp-3COOHF-Ala-Ala-Phe-Leu-PyrS2-[Ph]3SF-3Thi-Gln-NH2]: 5790 nM.
